We go through one compound from ChEMBL document CHEMBL6177968, “Development of sulfamoylbenzamide-based capsid assembly modulators for hepatitis B virus capsid assembly” (Eur J Med Chem, 2025).

The nature of series [1]: Selectivity index, ratio of CC50 for cytotoxicity in human HepG2-hNTCP cells assessed as reduction in cell viability to EC50 for antiviral activity against HBV in human HepG2-hNTCP cells assessed as reduction in viral replication. The format is toxicity, cell-based. Conditions: read-out: Ratio CC50/EC50.
Series [2] has as its target Cytochrome P450 2C19 (Homo sapiens, UniProt P33261). The experiment in a line: Inhibition of CYP2C19 in human liver microsome. In kind it is ADME, microsomes. Background: Liver microsomes are vesicles of endoplasmic reticulum, rich in cytochrome P450 enzymes.
The nature of series [3]: Tmax in male mouse at 20 mg/kg, po. The format is ADME, organism-based. Conditions: in vivo.
Series [4] can be described thus: Clearance in male mouse at 20 mg/kg, iv. The format is ADME, organism-based. Conditions: in vivo.
A short description of series [5]: Cytotoxicity in human HepG2-hNTCP cells assessed as reduction in cell viability. In kind it is toxicity, cell-based.
Series [6] deals with T1, Cytochrome P450 1A2 (Homo sapiens, UniProt P05177).
T1 sequence (P05177 whole entry): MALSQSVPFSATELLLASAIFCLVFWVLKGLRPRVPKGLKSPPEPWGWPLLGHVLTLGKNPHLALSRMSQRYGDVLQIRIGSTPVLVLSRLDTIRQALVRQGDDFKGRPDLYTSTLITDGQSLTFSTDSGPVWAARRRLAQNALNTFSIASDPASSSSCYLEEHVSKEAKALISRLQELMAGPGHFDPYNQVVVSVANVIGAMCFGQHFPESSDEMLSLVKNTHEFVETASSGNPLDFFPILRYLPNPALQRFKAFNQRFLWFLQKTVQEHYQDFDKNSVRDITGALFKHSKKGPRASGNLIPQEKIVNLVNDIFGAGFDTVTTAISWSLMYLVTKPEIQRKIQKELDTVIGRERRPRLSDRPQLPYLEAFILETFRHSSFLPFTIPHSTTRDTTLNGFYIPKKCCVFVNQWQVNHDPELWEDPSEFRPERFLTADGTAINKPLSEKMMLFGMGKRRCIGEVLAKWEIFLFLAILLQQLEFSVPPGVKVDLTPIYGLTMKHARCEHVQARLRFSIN
Put plainly: Inhibition of CYP1A2 in human liver microsome. The format is ADME, microsomes.

A short description of series [7]: Stability in human plasma assessed as compound remaining incubated for 4 hrs. In kind it is ADME, cell-free. Conditions: read-out: Stability.
Series [8] in a line: AUClast in male mouse at 20 mg/kg, iv. The format is ADME, organism-based. Conditions: in vivo.

pIC50: −log10 of the molar value. Where only a bound is given, the exact number is not on record here.

One may read the pIC50 as −log10 of the IC50, conventionally taken in molar units. A low value points to a large IC50. In general, Tmax refers to the time from dosing to the highest level. In general, clearance refers to the volume of plasma or blood freed of the substance per unit of time. A higher clearance goes with a high capacity for elimination. The term CC50 denotes the concentration that lowers cell viability or growth by half. One may read the AUC(0-t) as exposure summed from dosing to a finite time, without extrapolation to infinity. A high value points to high exposure.

Cytochrome P450 2C19, sequence (P33261 whole entry): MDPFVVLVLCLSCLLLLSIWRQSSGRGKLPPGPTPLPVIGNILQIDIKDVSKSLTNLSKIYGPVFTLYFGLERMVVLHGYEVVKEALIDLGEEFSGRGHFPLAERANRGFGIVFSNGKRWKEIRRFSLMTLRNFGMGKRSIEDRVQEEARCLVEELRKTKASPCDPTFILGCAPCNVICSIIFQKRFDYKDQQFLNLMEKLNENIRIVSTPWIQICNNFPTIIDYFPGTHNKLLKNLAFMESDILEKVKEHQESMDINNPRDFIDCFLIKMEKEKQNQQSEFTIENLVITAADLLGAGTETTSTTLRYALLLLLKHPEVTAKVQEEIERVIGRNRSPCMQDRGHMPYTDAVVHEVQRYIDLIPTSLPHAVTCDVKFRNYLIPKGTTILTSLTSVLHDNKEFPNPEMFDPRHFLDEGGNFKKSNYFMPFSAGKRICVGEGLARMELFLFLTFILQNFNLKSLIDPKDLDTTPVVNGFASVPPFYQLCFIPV

In the case of `Nc1cc(F)c(S(=O)(=O)NC2COC2)cc1C(=O)Nc1ccc(F)c(C(F)F)c1`, in series [1], the selectivity ratio is 3160. For the same compound, the pIC50 in series [2] and in series [6] was below 4.00 each time. The Tmax in series [3] turned out to be 25.2 min. For the same compound, in series [4], the clearance was 65.5 mL/min/kg. In series [5], the CC50 was 63.2 µM. For the same compound, the remaining at 4 h in series [7] was 94%. Moreover, the AUC(0-t) in series [8] stood at 4610 ng·h/mL.
